We go through three compounds from US20140066373A1, “TREATING DIABETES WITH OXYTOCIN OR OXYTOCIN ANALOGS” (Albert Einstein College of Medicine of Yeshiva University, priority 2012, published 2014).

Where no end group is shown, it is not given here.

The test system of assay [1] is STZ-induced diabetic mice. Kind of assay: 7-day intra-third ventricle pretreatment in STZ-induced diabetic mice: GTT, fasting blood insulin, GSIS, body weight. The format is in vivo, C57BL/6 mice. To be noted: vs STZ control; for first-phase glucose-stimulated insulin secretion (GSIS): blood insulin 3 min after glucose 3 g/kg i.p.; for fasting blood insulin levels / glucose intolerance (glucose tolerance test, GTT and AUC): pretreatment twice per day for 7 days, intra-third ventricle, 1 μg per injection (1 mg [sic] for [Ser4, Ile8]-oxytocin), STZ 40 mg/kg i.p. Day 4 to Day 7. The source says: (§1) Animals. C57BL/6 mice were purchased from Jackson Laboratory. All mice were housed in standard conditions. High-fat diet was purchased from Research Diets, Inc. All animal procedures were approved by the Institutional Animal Care and Use Committee. Mice were subjected to body weight measurement on a daily basis surrounding surgical procedures or drug treatments to monitor physical recovery or the effect of drug treatment on body weight.
(§2) Third ventricle cannulation and drug treatment. Third ventricle cannulation procedure was as previously described (39). An ultra-precise small animal stereotactic apparatus (Kopf Instruments) was used to perform implantation of a guide cannula into the third ventricle of anesthetized mice, at the coordinates of 1.8 mm posterior to the bregma and 5.0 mm below the skull surface. Mice were allowed 1-2 weeks for postsurgical recovery. For drug treatment. Oxytocin (Bachem Americas, Inc.), [Ser4, Ile8]-oxytocin (Bachem Americas, Inc.), [Asu1,6]-oxytocin (American Peptide Company, Inc.) or control vehicle were injected via pre-implanted guide cannula into the third ventricle of individually housed mice.
(§3) Blood tests. For glucose tolerance test (GTT), overnight-fasted mice received one-time intraperitoneal injection of glucose (2 g/kg body weight), and blood glucose levels were measured using OneTouch Ultra2 (LifeScan, Inc.). Fasting blood insulin levels were measured with Ultra Sensitive Mouse Insulin ELISA kits (Crystal Chem). Glucose-stimulated insulin secretion (GSIS) test was performed as previously described (19). Overnight-fasted mice received one-time intraperitoneal injection of glucose (3 g/kg body weight), and blood insulin levels were measured at 3 min. and 20 min. after the injection.
Next, it was investigated if oxytocin therapy may treat diabetes by counteracting its main pathological changes of pancreatic beta cell dysfunction and impaired insulin secretion. […] Experimentally, adult C57BL/6 mice on normal chow diet received intra-third ventricle implantation of cannula and postsurgical recovery. Oxytocin pretreatment was given at 1 μg per injection twice per day for 7 consecutive days via pre-implanted cannula, and non-treatment group received vehicle injections. From Day 4 to Day 7 during oxytocin treatment, mice simultaneously received intraperitoneal injections of STZ at 40 mg/kg body weight per day for 4 days to induce diabetes.
The same test strategy of pretreating mice with [Ser4, Ile8]-oxytocin was employed and then evaluating if it could attenuate the extent of STZ-induced beta cell dysfunction and diabetes. Adult chow-fed C57BL/6 mice first received intra-third ventricle injections of [Ser4, Ile8]-oxytocin at 1 mg per injection twice per day for 7 consecutive days. Non-treatment control mice received intra-third ventricle injections of vehicle instead of [Ser4, Ile8]-oxytocin. From Day 4 to Day 7 of [Ser4, Ile8]-oxytocin treatment, both treatment and control groups received intraperitoneal injections of STZ at 40 mg/kg body weight per injection per day for 4 days. The same panel of examinations were performed including glucose tolerance test, fasting blood insulin levels and glucose-stimulated insulin secretion in these mice.
Finally [Asu1,6]-oxytocin was tested for potential […] protection and anti-diabetic effects using an STZ-induced diabetic mouse model. [Asu1,6]-oxytocin pretreatment was given to adult chow-fed C57BL/6 mice via intra-third ventricle injections at 1 μg per injection b.i.d. for 7 consecutive days. Vehicle injections were given in parallel to non-treatment control group. From Day 4 to Day 7 of [Asu1,6]-oxytocin treatment, mice were subjected to STZ induction of diabetes at 40 mg/kg body weight per intraperitoneal injection per day for 4 days. Following [Asu1,6]-oxytocin and STZ treatments, mice were evaluated for glucose tolerance test, fasting blood insulin levels, and glucose-stimulated insulin secretion.

Assay [2] has as its system type-1 diabetic patients. To be noted: type-1 diabetic patients (28); cited from earlier work.
The subject of assay [3] is normal men. To be noted: normal men (29); cited from earlier work.
The subject of assay [4] is HFD-induced prediabetic mouse model. Kind of assay: Acute intra-third ventricle therapy in HFD-induced prediabetic (dietary obese) mice: GTT, fasting blood insulin, body weight. To be noted: for fasting blood insulin levels (hyperinsulinemia) / glucose intolerance (glucose tolerance test, GTT and AUC) / treatment effects compared with oxytocin at the same dose: 2-month HFD mice, intra-third ventricle; for fasting blood insulin levels (hyperinsulinemia) / glucose intolerance (glucose tolerance test, GTT and AUC): 2 μg per injection twice over overnight fasting, vs vehicle; for treatment effects compared with oxytocin at the same dose: 2 μg per injection twice, GTT and fasting insulin. It is filed as in vivo, C57BL/6 mice.
Source text: as §1, §2, §3
Acute oxytocin therapy reverses insulin resistance in dietary obese mice independently of body weight. […] To experimentally address whether oxytocin could have an anti-diabetic action, and independently of its anti-obesity effect, an acute oxytocin therapy paradigm was applied to dietary obese mice to avoid confounding body weight changes, so that the potential anti-diabetes effect of oxytocin could be dissected from its anti-obesity effect. Adult male C57BL/6 mice […] of high-fat diet (HFD) feeding since weaning to develop pre-diabetic glucose intolerance and hyperinsulinemia. Then these mice received third-ventricle implantation of guide cannula followed by postsurgical recovery. Oxytocin was administered via pre-implanted third-ventricle cannula at a dose of 2 μg per injection twice over an overnight fasting period, one at the starting point of fasting and the other at 30 min prior to glucose tolerance test (GTT). Mice of treatment control group received intra-third ventricle vehicle injections.
Acute [Ser4, Ile8]-oxytocin therapy improves insulin resistance in dietary obese mice independently of body weight. Having observed the anti-insulin resistance effect of oxytocin, it was next investigated whether oxytocin peptide analogs have similar or stronger treatment effect. The purpose of this experiment was two-fold. First, was to investigate whether the anti-insulin resistance action of oxytocin could be extended to oxytocin analogs. […] Existing oxytocin peptide analogs were screened. [Ser4, Ile8]-oxytocin came out of the screen as a good candidate. […] This stronger anti-insulin resistance effect of [Ser4, Ile8]-oxytocin is in line with structure-based theoretical prediction of drug effects. The substitution of glutamine at amino acid position 4 of oxytocin with serine has two direct effects on peptide function—it strengthens the α-helical structure in peptide (13), which leads to an overall structural stabilization, longer drug duration, and better protein binding property with signaling partners; it also increases the hydrophobicity of peptide, which leads to enhanced membrane permeability and improved tissue distribution. […]

The subject of assay [5] is obesity. To be noted: cited from earlier work.
In assay [6] the test system is normal rats. The conditions noted are these: central or peripheral administration; normal rats (5); cited from earlier work.
Assay [7] relates to uterine contractile response. To be noted: of natural oxytocin, literature report (36); cited from earlier work.

In the case of `CC[C@H](C)[C@@H]1NC(=O)[C@H](Cc2ccc(O)cc2)NC(=O)[C@@H](N)CSSC[C@@H](C(=O)N2CCC[C@H]2C(=O)N[C@@H](CC(C)C)C(=O)NCC(N)=O)NC(=O)[C@H](CC(N)=O)NC(=O)[C@H](CCC(N)=O)NC1=O` [oxytocin, Cys-Tyr-Ile-Gln-Asn-Cys-Pro-Leu-Gly-NH2], the “first-phase glucose-stimulated insulin secretion (GSIS)” value in assay [1] (7-day pretreatment, STZ mice) is on record as “potentiated”. The “second-phase glucose-stimulated insulin secretion (GSIS)” value in assay [1] (blood insulin 20 min after glucose 3 g/kg i.p., 7-day pretreatment, STZ mice) is given as “potentiated”. Moreover, the “fasting blood insulin levels” value in assay [1] is given as “protected fasting blood insulin levels”. Further, the “glucose intolerance (glucose tolerance test, GTT and AUC)” value (shortened to “glucose intolerance”) in assay [1] is on record as “significantly improved glucose intolerance”; in assay [4] it was “significantly improved”. For the same compound, the pancreatic insulin secretion result in assay [2], in assay [3] and in assay [6] was “can stimulate pancreatic insulin secretion” each time. Also, in assay [4], the “fasting blood insulin levels (hyperinsulinemia)” value is “significantly improved”. For the same compound, the insulin resistance result in assay [4] (obesity-induced type-2 prediabetic mice, acute treatment) is reported as “can acutely reverse insulin resistance”. Moreover, the obesity entry in assay [5] (chronic central or peripheral oxytocin treatment (25; 37)) was “can decrease obesity”. Moreover, the food intake result in assay [5] (oxytocin treatment (37)) was “decreases rather than increases food intake”.

Take [Asu1,6]-oxytocin: the “first-phase glucose-stimulated insulin secretion (GSIS)” value in assay [1] (7-day pretreatment, STZ mice) is listed as “appreciably improved”. In assay [1], the “fasting blood insulin levels” value is “appreciably improved”; the “glucose intolerance” value is on record as “appreciably improved”. In assay [4], the “fasting blood insulin levels (hyperinsulinemia)” value is listed as “lowered fasting blood insulin levels”; the “glucose intolerance” value was “improved glucose intolerance”; the “treatment effects compared with oxytocin at the same dose” value is recorded as “slightly weaker than oxytocin”. Further, the “intrinsic activity relative to natural oxytocin” value in assay [7] is listed as around 70%.

For “[Ser4, Ile8]-oxytocin (CYISNCPIG; ends and bridges not checked; cysteine pairing not given here; UniProt P01178 20-28, looked up, variant Q4S L8I) [oxytocin analog: glutamine at position 4 substituted with serine, leucine at position 8 with isoleucine; Bachem Americas, Inc]”, in assay [1] (7-day pretreatment, STZ mice), the “first-phase glucose-stimulated insulin secretion (GSIS)” value is recorded as “significantly higher levels of first-phase GSIS than non-treatment group”. Further, in assay [1], the “fasting blood insulin levels” value is recorded as “ameliorated circulating insulin insufficiency”; the “glucose intolerance” value was “significantly prevented STZ-induced glucose intolerance”. In addition, in assay [4], the “fasting blood insulin levels (hyperinsulinemia)” value was “significantly corrected”; the “glucose intolerance” value is “significantly corrected glucose intolerance”; the “treatment effects compared with oxytocin at the same dose” value was “higher efficacy than oxytocin”.
